According to patent publication US20240116962A1, “PYRIDINE-2-AMINE DERIVATIVE AND PHARMACEUTICAL COMPOSITION AND USE THEREOF” (TSINGHUA UNIVERSITY, priority 2020, published 2024):
pEC50: −log10 of the molar value.

How the values were obtained:
hTLR8 = target: T1, hTLR8 (Homo sapiens, UniProt Q9NR97); experiment: EC50 assay for small molecule agonists, HEK-Blue hTLR8 cells, SEAP readout; assay type: cell-based; settings: agonist activity, read-out: hTLR8(EC50)
T1 construct: host or cells: HEK-Blue hTLR8 (HEK293-derived reporter cells with SEAP read-out)
T1 sequence (Q9NR97 27-1041): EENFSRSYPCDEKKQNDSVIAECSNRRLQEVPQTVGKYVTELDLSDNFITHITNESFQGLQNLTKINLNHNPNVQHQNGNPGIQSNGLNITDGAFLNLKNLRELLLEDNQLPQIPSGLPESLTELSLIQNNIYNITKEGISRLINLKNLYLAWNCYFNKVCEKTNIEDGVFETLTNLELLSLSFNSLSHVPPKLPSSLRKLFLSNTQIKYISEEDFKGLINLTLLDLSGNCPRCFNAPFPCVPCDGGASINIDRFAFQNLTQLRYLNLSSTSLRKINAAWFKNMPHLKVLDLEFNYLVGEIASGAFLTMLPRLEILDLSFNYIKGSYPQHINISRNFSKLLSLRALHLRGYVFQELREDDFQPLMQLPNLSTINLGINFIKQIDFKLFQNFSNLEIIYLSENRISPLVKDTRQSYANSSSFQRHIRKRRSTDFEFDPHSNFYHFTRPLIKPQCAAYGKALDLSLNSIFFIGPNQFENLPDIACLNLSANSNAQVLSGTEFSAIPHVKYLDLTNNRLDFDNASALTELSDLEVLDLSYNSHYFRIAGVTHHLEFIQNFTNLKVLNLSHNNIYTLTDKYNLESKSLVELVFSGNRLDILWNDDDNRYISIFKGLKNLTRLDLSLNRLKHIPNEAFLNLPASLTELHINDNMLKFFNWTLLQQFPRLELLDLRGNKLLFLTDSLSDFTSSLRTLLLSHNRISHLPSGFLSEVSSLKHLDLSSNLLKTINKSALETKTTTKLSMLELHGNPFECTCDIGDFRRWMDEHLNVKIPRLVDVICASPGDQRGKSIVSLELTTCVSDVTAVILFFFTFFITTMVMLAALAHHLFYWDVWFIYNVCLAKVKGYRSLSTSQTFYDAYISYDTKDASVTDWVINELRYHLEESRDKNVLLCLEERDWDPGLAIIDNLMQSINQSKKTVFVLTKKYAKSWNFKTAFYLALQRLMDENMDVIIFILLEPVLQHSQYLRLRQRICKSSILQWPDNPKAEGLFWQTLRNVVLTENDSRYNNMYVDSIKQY
Description: (§1) Reagents used for cell culture and detection for HEK-Blue™ hTLR7, HEK-Blue™ hTLR8 and control HEK-Blue Nu112k were as follows: DMEM (4.5 g/L glucose), bovine serum FBS, streptomycin ([…]), penicillin (50 U/mL), Blasticidin (10 mg/mL), Zeocin™ (10 mg/mL), Normocin (50 mg/mL), and HEK-Blue™ Detection. Basal medium was as follows: DMEM +10% FBS+streptomycin+penicillin+Normocin ([…]); selective medium for resistance genes was as follows: DMEM+10% FBS+streptomycin+penicillin+Normocin (1001 μg/mL)+Blasticidin (1001 μg/mL)+Zeocin™ (1001 μg/mL).
(§2) Cell preparation: HEK-Blue™ hTLR7 and HEK-Blue™ hTLR8 cell lines were purchased from Invivogen. The cells frozen in liquid nitrogen were taken, quickly placed in a water bath at 37° C., shaken occasionally, and completely melted within 1 min. The cells were transferred to 15 mL of pre-heated basal medium and resuspended; centrifuged at 1,000 r/min for 5 min, supernatant discarded; resuspended with 1 mL of basal medium, transferred to a T25 culture flask, supplemented to 5 mL with the medium, and incubated in an incubator at 37° C.; after stable passage twice, and subjected to selective antibiotic screening: HEK-Blue™ hTLR7 or HEK-Blue™ hTLR8: 100 μg/mL Zeocin+Blasticidin (30 μg/mL), HEK-Blue Nu112-k: 100 μg/mL Zeocin. The fluid was changed 3 times a week. When the number of cells reached 70%-80%, PBS was added, and the cells were exfoliated by gently pipetting.
(§3) Activity assay steps: (1) adding a test sample to a 96-well plate at 20 μL/well (triplicate wells were set); (2) adding 20 μL of positive control (e.g., R848), and adding 20 μL of negative control (e.g., ddH2O); (3) removing a T75 culture flask from the incubator, discarding the medium, adding 5-10 mL of pre-heated PBS, and gently pipetting the cells; adding 2-5 mL of PBS to the culture flask, incubating the culture flask in the incubator for 1-2 min, and then gently pipetting the cells to make them exfoliated; (4) mixing the mixture well, and counting the cells, without centrifugation; resuspending the cells with HEK-Blue™ assay solution and adjusting the cell number, taking care not to incubate for a long time to avoid too deep background or false positive. HEK-Blue hTLR cell number was about 2.2×10^5/mL, 180 μL/well (about 40000 cells), and HEK-Blue Nu112-k cell number was about 2.8×10^5/mL, 180 μL/well (about 50000 cells). (5) incubating the cells in the incubator at 37° C. for 6-16 h, and detecting at 620-655 nm for SEAP readings.
(§4) Effect %=(mean OD of the administration group−mean OD of the H2O group at each concentration)/(mean ODmax of the positive drug group−mean OD of the H2O group)×100. EC50 was calculated by fitting Lg [concentration]-effect curves using GraphPad Prism5 software.
(§5) Experimental results: the concentration for 50% of maximal effect (EC50) refers to a corresponding concentration of small molecules that can cause 50% of the maximal agonistic effect. […] EC50 represents a potency for agonizing the TLR8 receptor, with smaller values indicating better efficacy. […] In the following table, the unit of the agonist activity is nanomole, unless otherwise specified.

hTLR7 = target: T2, hTLR7 (Homo sapiens, UniProt Q9NYK1); experiment: EC50 assay for small molecule agonists, HEK-Blue hTLR7 cells, SEAP readout; assay type: cell-based; settings: agonist activity, nd = EC50 larger than 25 μM
T2 construct: host or cells: HEK-Blue hTLR7 (HEK293-derived reporter cells with SEAP read-out)
T2 sequence (Q9NYK1 27-1049): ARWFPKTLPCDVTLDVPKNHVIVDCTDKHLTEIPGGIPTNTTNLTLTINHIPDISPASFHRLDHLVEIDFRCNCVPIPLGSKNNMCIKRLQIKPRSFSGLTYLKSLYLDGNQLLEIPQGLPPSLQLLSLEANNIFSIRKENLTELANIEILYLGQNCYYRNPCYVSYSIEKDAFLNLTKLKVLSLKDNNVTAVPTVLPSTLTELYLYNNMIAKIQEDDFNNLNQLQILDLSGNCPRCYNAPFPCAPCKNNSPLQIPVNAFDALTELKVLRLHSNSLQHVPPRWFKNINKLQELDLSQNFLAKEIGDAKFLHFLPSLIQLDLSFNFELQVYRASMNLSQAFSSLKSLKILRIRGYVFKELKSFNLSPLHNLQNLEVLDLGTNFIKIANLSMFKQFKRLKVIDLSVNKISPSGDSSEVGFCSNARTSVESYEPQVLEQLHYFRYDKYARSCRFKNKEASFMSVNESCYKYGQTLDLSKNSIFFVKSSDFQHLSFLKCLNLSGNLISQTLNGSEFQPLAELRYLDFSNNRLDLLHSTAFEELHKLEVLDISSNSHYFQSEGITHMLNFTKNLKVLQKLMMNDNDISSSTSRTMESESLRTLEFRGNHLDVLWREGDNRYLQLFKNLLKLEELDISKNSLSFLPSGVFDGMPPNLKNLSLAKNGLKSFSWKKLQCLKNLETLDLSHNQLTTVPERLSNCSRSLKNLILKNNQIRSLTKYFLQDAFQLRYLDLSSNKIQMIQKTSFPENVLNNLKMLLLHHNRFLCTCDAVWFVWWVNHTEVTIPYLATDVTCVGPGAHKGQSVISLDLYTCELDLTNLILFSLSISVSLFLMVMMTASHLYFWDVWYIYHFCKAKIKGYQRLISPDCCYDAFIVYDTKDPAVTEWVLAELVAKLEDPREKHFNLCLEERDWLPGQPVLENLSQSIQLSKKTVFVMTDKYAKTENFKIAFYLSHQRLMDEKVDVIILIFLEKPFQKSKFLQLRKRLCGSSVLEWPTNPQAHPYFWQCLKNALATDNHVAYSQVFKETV
Description: as §1, §2, §3, §4, §5

Compound	pEC50 (hTLR8)	pEC50 (hTLR7)
CCCCCc1cc(Cc2ccc(CN(C)C)cc2F)c(C)nc1N [Compound N23]	7.10	< 4.60
CCCCCc1cc(Cc2ccc(CN3CC4(COC4)C3)cc2F)c(C)nc1N [Compound N24]	6.95	< 4.60
CCCCCc1cc(Cc2ccc(CN(C)CCOCCOCCC(F)(F)P(=O)(OCC)OCC)cc2)c(C)nc1N [Compound N25]	< 5.40	< 4.60
CCCCCc1cc(Cc2ccc(CN(C)CCOCCOCCC(F)(F)P(=O)(O)O)cc2)c(C)nc1N [Compound N26]	< 5.40	< 4.60
CCCCCc1cc(Cc2ccc(CN(C)C)cc2)cnc1N [Compound N31]	6.61	< 4.60
CCCCCc1cc(Cc2ccccc2CN(C)C)c(C)nc1N [Compound N34]	< 5.40	< 4.60
CCCCCc1cc(Cc2ccccc2CN2CCCC2)c(C)nc1N [Compound N35]	< 5.40	< 4.60

The next lines start with the values.

pEC50 (hTLR8)	pEC50 (hTLR7)	Compound
6.91	< 4.60	CCCCCc1cc(Cc2ccc(CN3CC[C@H](O)C3)cc2)c(C)nc1N [Compound N18]
6.98	< 4.60	CCCCCc1cc(Cc2ccc(CN3CC[C@@H](O)C3)cc2)c(C)nc1N [Compound N19]
6.89	< 4.60	CCCCCc1cc(Cc2ccc(CNC3CC3)cc2)c(C)nc1N [Compound N20]
6.93	< 4.60	CCCCCc1cc(Cc2ccc(CN3CC(O)C3)cc2)c(C)nc1N [Compound N21]
7.09	< 4.60	CCCCCc1cc(Cc2ccc(CN3CC4(COC4)C3)cc2)c(C)nc1N [Compound N22]
< 5.40	< 4.60	CCCCCc1cc(Cc2ccc(COC)cc2)c(C)nc1N [Compound N27]
< 5.40	< 4.60	COCCCc1cc(Cc2ccc(CN(C)C)cc2)c(C)nc1N [Compound N28]
< 5.40	< 4.60	COCCCc1cc(Cc2ccc(CN3CCCC3)cc2)c(C)nc1N [Compound N29]
< 5.40	< 4.60	COCCCc1cc(Cc2ccc(CN3CCN(C)CC3)cc2)c(C)nc1N [Compound N30]
6.54	< 4.60	CCCCCc1cc(Cc2cccc(CN(C)C)c2)c(C)nc1N [Compound N32]
< 5.40	< 4.60	CCCCCc1cc(Cc2ccccc2CO)c(C)nc1N [Compound N33]
